Patent US11629146B2, “Substituted [1,2,4]triazolo[4,3-a]pyrazines as modulators of sodium channel activity” (Praxis Precision Medicines, Inc., priority 2016, dated 2023)
Like-named read-outs stand apart in the source and are kept apart here.

Experiments:
[1] = PK rat clearance experiment; type: in vivo; conditions: male Sprague-Dawley rats, single intravenous bolus 0.5 mg/kg, plasma
Experimental: The IV dosing solution was prepared freshly on the dosing day. Test article (0.5 mg/kg) was prepared in a vehicle, for example, consisting of 5% DMSO/5% solutol/90% water. The concentrations of test article in all dosing solutions were determined by HPLC/UV. Three male Sprague-Dawley rats were used in this study. The animals were confirmed healthy before being assigned to the study. Each animal was given a unique identification number which was marked on the tail or the ear, and written on the cage card. All animals were fasted overnight before dosing and the food was returned at 4 hours post dosing. Water was provided to all animals ad libitum during the fasting period. Animals were weighed prior to dose administration on the day of dosing for calculating the actual dose volume. The body weights were in the range from 212 g to 223 g for males. All animals received test article by single intravenous bolus administration at 0.5 mg/kg. Approximately 0.2 mL blood was collected at each time point via jugular vein from each study animal. […] All blood samples were transferred into pre-labeled plastic micro centrifuge tubes and mixed with the pre-loaded anti-coagulant K2EDTA (5 μL, 0.5 M). Plasma samples were then prepared by centrifuging the blood samples. All plasma samples were then quickly frozen over dry ice and kept at −60° C. or lower until LC/MS/MS analysis. The concentrations of test article in plasma were determined by using a quantitative bioanalytical LC/MS/MS method. The lower limit of quantitation (LLOQ) for test article in plasma was 1 ng/mL, and the upper limit of quantitation (ULOQ) in plasma was 3000 ng/mL. The plasma concentration of test article in rats was subjected to a non compartmental pharmacokinetic analysis by using the Phoenix WinNonlin software (version 6.3, Pharsight, Mountain View, Calif.). The linear/log trapezoidal rule was applied in obtaining the PK parameters.

CYP1A2 = CYP1A2 (Homo sapiens (Human), UniProt P05177); assay: CYP1A2 inhibition in human liver microsomes; type: in vitro ADME; conditions: pooled human liver microsomes, marker substrate Phenacetin
Experimental: The specific marker metabolites are measured with LC/MS/MS. The remaining enzymatic activities and inhibitory potency IC50 are determined. Microsomes are removed out of the −80° C. freezer to thaw on ice and 20 μL of the substrates solution added to the corresponding wells. […] Then 158 μL of the HLM working solution was added to all wells of the incubation plate. The plate was pre-warmed for about 10 min using a 37° C. water bath. Then 20 μL of the NADPH cofactor solution was added to all incubation wells, mixed and incubated for 10 minutes at 37° C. water bath. The reaction is terminated by adding 400 μL cold stop solution (200 ng/mL Tolbutamide and 200 ng/mL Labetalol in ACN). […] Finally 200 μL of the supernatant was transferred to 100 μL HPLC water, shaken for 10 min and analyzed by LC/MS/MS. […] Equation for three parameters logistic sigmoidal curve: […]

human NaV1.6 (hNaV1.6) = human NaV1.6 (hNaV1.6) (Homo sapiens (Human), UniProt Q9UQD0); assay: INaL inhibition at hNaV1.6, PatchXpress electrophysiology; type: cell-based
Experimental: Functional characterization of exemplary compounds to modulate INaL expressed by the Nay 1.6 voltage-gated sodium channel was accomplished using the PatchXpress™ high throughput electrophysiology platform (Molecular Devices, Sunnyvale, Calif.). HEK-293 cells expressing recombinant, human NaV1.6 (hNaV1.6) were grown in DMEM/high-glucose Dulbecco's modified, 10% FBS, 2 mM sodium pyruvate, 10 mM HEPES and 400 μg/mL G418. Cells were grown to 50%-80% confluency prior to harvesting. […] The onboard liquid handling facility of the PatchXpress was used for dispensing cells and applying test compounds. Nay late currents were evoked by the application of 300 nM ATX-II. […] INaL amplitude and stability were determined by analyzing the mean current amplitude over the final 20 ms of the test pulse. […] Percent steady-state inhibition of INaL was calculated as: [(INaL_compound)/(INaL_control)]*100, where INaL_compound and INaL_control represent INaL recorded in the presence or absence of compound, respectively.

[2] = molecular target: human NaV1.5 late sodium current (INaL) (Homo sapiens (Human), UniProt Q14524); assay: INaL inhibition at hNaV1.5, PatchXpress electrophysiology; type: cell-based; conditions: HEK-293 cells expressing recombinant human NaV1.5, HEK-293 cells expressing hNaV1.5, late current evoked by 300 nM ATX-II, read-out: INaL v1.5 (1 μM, % Inhibition)
[3] = HEK293, 1 μM, HEK-293 cells expressing hNaV1.6, late current evoked by 300 nM ATX-II, read-out: INaL v1.6 (1 μM, % Inhibition)
[4] = HEK293, read-out: INaL v1.6 (1 μM, % Inhibition)

Chain of CYP1A2 (P05177 whole entry): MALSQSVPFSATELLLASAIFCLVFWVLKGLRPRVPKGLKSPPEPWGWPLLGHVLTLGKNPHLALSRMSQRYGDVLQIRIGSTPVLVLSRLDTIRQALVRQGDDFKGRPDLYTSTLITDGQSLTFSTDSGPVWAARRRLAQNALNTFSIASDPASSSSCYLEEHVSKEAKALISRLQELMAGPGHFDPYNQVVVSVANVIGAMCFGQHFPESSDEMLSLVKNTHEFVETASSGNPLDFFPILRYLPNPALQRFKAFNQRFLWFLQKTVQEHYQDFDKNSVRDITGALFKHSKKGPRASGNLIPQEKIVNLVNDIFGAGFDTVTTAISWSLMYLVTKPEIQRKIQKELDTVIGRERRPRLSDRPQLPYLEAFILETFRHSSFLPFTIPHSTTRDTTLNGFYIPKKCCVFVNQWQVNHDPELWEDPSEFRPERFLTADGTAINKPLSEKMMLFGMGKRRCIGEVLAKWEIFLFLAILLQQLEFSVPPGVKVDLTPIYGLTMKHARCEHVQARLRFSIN
Chain of human NaV1.5 late sodium current (INaL) (Q14524 whole entry): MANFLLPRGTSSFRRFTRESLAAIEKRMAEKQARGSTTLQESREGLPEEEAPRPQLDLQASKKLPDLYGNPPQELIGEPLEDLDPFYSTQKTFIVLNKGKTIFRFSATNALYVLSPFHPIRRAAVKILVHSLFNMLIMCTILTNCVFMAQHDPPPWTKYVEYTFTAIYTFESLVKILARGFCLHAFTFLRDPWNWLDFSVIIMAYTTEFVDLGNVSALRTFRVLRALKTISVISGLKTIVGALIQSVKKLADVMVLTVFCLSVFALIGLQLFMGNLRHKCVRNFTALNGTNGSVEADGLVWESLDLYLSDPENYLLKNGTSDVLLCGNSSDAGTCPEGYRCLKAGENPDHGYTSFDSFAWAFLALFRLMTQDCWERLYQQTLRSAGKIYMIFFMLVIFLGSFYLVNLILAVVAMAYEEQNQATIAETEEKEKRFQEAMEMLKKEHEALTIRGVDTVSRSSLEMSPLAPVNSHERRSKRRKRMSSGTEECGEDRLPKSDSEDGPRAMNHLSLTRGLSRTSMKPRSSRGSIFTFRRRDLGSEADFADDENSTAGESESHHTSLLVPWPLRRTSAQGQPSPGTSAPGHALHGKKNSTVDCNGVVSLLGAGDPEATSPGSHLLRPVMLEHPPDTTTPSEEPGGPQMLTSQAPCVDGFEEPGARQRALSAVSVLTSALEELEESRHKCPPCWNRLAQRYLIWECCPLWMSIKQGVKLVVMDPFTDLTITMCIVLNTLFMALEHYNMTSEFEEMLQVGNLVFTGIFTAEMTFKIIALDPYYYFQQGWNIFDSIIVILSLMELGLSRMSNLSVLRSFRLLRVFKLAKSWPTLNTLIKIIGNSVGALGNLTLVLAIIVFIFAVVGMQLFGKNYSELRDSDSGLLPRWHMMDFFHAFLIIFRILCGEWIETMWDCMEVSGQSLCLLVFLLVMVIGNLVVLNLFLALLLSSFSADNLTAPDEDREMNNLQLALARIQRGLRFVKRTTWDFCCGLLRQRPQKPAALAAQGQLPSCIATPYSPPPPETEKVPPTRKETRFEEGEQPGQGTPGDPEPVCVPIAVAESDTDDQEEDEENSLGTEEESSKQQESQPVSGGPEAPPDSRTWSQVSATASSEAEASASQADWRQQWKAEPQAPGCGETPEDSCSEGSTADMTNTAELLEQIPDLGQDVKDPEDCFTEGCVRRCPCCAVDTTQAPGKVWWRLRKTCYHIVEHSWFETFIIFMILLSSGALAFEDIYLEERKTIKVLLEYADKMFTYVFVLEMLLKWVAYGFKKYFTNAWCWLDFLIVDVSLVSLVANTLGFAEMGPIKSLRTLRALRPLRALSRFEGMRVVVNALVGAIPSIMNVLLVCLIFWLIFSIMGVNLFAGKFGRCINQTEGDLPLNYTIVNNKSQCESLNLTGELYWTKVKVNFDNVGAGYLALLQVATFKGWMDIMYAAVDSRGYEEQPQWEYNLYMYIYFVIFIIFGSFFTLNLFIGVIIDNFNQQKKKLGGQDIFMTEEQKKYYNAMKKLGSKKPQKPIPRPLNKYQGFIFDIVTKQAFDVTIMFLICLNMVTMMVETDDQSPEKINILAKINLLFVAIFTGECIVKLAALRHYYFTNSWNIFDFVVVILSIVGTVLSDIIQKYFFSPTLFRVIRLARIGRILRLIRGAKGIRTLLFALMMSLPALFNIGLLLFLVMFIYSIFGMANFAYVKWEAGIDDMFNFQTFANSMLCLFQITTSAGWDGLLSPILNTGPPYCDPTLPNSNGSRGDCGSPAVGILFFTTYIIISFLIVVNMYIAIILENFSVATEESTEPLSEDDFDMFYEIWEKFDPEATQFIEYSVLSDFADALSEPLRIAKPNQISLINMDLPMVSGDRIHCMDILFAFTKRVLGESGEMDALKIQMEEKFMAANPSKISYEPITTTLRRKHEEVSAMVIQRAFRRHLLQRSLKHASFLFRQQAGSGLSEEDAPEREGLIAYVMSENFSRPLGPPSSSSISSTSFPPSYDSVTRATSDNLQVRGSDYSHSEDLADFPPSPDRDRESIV
Chain of human NaV1.6 (hNaV1.6) (Q9UQD0 whole entry): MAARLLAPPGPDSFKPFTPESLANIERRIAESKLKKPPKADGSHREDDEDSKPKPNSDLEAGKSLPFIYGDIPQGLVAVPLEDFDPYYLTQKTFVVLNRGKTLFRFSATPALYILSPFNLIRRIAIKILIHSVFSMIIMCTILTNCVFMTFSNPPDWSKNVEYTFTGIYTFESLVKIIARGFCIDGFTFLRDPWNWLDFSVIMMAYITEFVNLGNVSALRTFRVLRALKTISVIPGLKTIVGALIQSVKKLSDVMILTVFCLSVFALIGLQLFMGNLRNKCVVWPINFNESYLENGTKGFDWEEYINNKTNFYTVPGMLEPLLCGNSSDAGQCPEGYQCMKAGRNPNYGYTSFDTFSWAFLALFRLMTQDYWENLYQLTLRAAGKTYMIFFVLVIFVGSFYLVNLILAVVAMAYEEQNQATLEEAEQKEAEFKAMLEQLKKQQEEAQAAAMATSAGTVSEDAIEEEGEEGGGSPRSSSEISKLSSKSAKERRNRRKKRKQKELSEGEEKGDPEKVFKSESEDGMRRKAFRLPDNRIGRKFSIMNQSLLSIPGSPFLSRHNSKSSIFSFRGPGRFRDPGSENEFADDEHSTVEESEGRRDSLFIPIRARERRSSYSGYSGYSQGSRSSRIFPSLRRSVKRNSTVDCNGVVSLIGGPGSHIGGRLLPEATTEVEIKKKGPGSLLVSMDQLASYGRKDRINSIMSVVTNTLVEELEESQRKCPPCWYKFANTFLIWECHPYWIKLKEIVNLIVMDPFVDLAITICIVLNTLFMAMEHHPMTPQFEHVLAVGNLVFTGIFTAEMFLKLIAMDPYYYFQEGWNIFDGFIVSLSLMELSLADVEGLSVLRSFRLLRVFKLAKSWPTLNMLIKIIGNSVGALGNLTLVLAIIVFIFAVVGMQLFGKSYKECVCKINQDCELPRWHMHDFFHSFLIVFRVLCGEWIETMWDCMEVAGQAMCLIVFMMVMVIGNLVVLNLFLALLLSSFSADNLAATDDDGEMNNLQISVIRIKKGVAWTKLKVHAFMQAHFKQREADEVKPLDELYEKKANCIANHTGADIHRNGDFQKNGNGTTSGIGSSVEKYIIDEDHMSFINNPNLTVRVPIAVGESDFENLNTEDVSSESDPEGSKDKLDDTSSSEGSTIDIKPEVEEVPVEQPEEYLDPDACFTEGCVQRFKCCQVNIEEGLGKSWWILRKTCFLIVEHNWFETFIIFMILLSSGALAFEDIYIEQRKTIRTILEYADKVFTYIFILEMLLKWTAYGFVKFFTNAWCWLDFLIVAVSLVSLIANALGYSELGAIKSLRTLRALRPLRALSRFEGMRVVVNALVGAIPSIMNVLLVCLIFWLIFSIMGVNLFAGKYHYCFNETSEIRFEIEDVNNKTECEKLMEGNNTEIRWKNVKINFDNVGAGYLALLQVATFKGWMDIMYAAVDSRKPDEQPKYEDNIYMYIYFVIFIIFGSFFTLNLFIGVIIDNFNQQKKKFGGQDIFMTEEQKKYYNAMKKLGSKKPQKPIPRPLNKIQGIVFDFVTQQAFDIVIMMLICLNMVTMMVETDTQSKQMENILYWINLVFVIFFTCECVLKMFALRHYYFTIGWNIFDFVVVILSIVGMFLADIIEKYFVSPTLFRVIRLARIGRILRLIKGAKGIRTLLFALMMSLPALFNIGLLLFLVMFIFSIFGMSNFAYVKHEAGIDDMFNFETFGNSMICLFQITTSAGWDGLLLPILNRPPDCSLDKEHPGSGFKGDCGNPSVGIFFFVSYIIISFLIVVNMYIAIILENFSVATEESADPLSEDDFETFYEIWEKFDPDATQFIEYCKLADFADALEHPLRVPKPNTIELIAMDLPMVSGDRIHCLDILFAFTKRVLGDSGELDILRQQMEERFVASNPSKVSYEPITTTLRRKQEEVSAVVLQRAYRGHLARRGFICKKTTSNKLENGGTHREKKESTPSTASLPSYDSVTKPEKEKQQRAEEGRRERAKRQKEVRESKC

Row | SMILES | clearance [1] [mL/min/kg] | half-life [1] [h] | IC50 (CYP1A2) [µM] | inhibition at 1 µM (human NaV1.6 (hNaV1.6); [3]) [%] | inhibition at 1 µM [2] [%] | inhibition at 1 µM (human NaV1.6 (hNaV1.6); [4]) [%]
1 | C[C@@H](Oc1ncc(-c2cn3c(C(F)(F)F)nnc3cn2)cc1F)C(F)(F)F (single isomer, unassigned) [Compound 124] | 15.9 | 6.5 | > 30 | > 70 |  | 
2 | C[C@H](Oc1ncc(-c2cn3c(C(F)(F)F)nnc3cn2)cc1F)C(F)(F)F (single isomer, unassigned) [Compound 125] |  |  | > 30 | > 70 |  | 
3 | FC(F)(F)Oc1ccc(-c2ccc3nnc(C[C@@H]4CCCCO4)n3n2)cc1 (single isomer, unassigned) [Compound 43] |  |  | > 30 | 30 to 70 |  | 
4 | FC(F)(F)Oc1cccc(-c2ccc3nnc(C(F)(F)F)n3n2)c1 [Compound 17] |  |  |  | 30 to 70 | < 50 | 
5 | COc1cc(OC(F)(F)F)ccc1-c1ccc2nnc(C(F)F)n2n1 [Compound 16] | 52.3 | 0.49 |  | > 70 | > 50 | 
6 | FC(F)(F)Oc1ccc(-c2ccc3nnc(CC4CCCO4)n3n2)cc1 (stereo not shown) [Compound 11] |  |  |  | < 30 | < 50 | 
7 | C[C@H](Oc1ncc(-c2ccc3nnc(C(F)(F)F)n3n2)cc1F)C(F)(F)F (single isomer, unassigned) [Compound 127] |  |  | > 30 | > 70 |  | 
8 | Cc1cc(OC(F)(F)F)ccc1-c1cn2c(C(F)F)nnc2cn1 [Compound 49] | 7.6 | 8.1 | 15 to 30 | > 70 |  | 
9 | FC(F)(F)c1ccc(-c2ccc3nnc(C(F)(F)F)n3n2)cc1 [Compound 1] |  |  |  | > 70 | > 50 | 
10 | COc1cc(OC(F)(F)F)ccc1-c1ccc2nnc(C3CC3(F)F)n2n1 (stereo not shown) [Compound 15] |  |  |  | > 70 | > 50 | 
11 | FC(F)(F)Oc1ccc(-c2ccc3nnc(C[C@H]4CCCCO4)n3n2)cc1 (single isomer, unassigned) [Compound 42] |  |  | > 30 | 30 to 70 |  | 
12 | FC1(F)CC(Oc2ccc(-c3ccc4nnc(C(F)(F)F)n4n3)cc2)C1 [Compound 59] | 39.8 | 0.8 | > 30 | 30 to 70 |  | 
13 | Fc1cc(OC(F)(F)F)ccc1-c1ccc2nnc(C(F)(F)F)n2n1 [Compound 23] | 1.4 | 21.9 |  | > 70 | > 50 | 
14 | Fc1cc(OC(F)(F)F)ccc1-c1cn2c(C(F)(F)F)nnc2cn1 [Compound 72] |  |  | 1 to 15 | < 30 |  | 
15 | Fc1c(OC(F)(F)F)cccc1-c1ccc2nnc(C(F)(F)F)n2n1 [Compound 19] |  |  |  | < 30 | < 50 | 
16 | Fc1cc(-c2cn3c(C(F)(F)F)nnc3cn2)cnc1OCC(F)(F)F [Compound 78] |  |  | > 30 | 30 to 70 |  | 
17 | Cc1cc(OC(F)(F)F)ccc1-c1cn2c(C(F)(F)F)nnc2cn1 [Compound 63] | 8.8 | 10.2 | 15 to 30 | > 70 |  | 
18 | OCc1nnc2ccc(-c3ccc(OC(F)(F)F)cc3)nn12 [Compound 21] |  |  |  |  | < 50 | < 30
19 | FC(F)(F)COc1ccc(-c2ccc3nnc(C(F)(F)F)n3n2)cn1 [Compound 30] | 29 | 0.36 | 15 to 30 | > 70 | > 50 | 
20 | C[C@@H](Oc1ncc(-c2ccc3nnc(C(F)(F)F)n3n2)cc1F)C(F)(F)F (single isomer, unassigned) [Compound 126] |  |  | > 30 | > 70 |  | 
21 | FC(F)(F)Oc1ccc(-c2ccc3nnc(CC4CCOC4)n3n2)cc1 (stereo not shown) [Compound 10] |  |  |  | 30 to 70 | < 50 | 
22 | Cc1cc(C(F)(F)F)ccc1-c1ccc2nnc(C(F)(F)F)n2n1 [Compound 3] | 6 | 6.7 | 1 to 15 | > 70 | > 50 | 
23 | COC(F)(F)c1nnc2ccc(-c3cnc(OCC(F)(F)F)c(F)c3)nn12 [Compound 96] |  |  | > 30 | > 70 |  | 
24 | Cc1cc(OC(F)(F)F)ccc1-c1ccc2nnc(C(F)F)n2n1 [Compound 136] |  |  | 1 to 15 | > 70 |  | 

Row | SMILES | clearance [1] [mL/min/kg] | half-life [1] [h] | IC50 (CYP1A2) [µM] | inhibition at 1 µM (human NaV1.6 (hNaV1.6); [3]) [%] | inhibition at 1 µM [2] [%] | inhibition at 1 µM (human NaV1.6 (hNaV1.6); [4]) [%]
25 | FC(F)(F)Oc1ccc(-c2cn3c(C4(F)CC4)nnc3cn2)cc1 [Compound 112] |  |  | 1 to 15 | 30 to 70 |  | 
26 | Cc1cc(C(F)(F)F)ccc1-c1cn2c(C(F)(F)F)nnc2cn1 [Compound 73] |  |  | 1 to 15 | 30 to 70 |  | 
27 | FC(F)(F)Oc1ccc(-c2ccc3nnc(C(F)(F)F)n3n2)cc1 [Compound 108] |  |  | 1 to 15 |  |  | 
28 | FC(F)(F)COc1ccc(-c2ccc3nnc(C(F)(F)C(F)(F)F)n3n2)cn1 [Compound 9] |  |  |  | 30 to 70 | > 50 | 
29 | FC(F)(F)Cc1nnc2ccc(-c3ccc(OC(F)(F)F)cc3)nn12 [Compound 6] | 9.2 | 3.2 | 1 to 15 | 30 to 70 | > 50 | 
30 | Cc1cc(-c2ccc3nnc(C(F)(F)F)n3n2)ccc1OC(F)(F)F [Compound 2] |  |  |  | > 70 | > 50 | 
31 | FC(F)(F)COc1ccc(-c2ccc3nnc(C4CC4)n3n2)cn1 [Compound 8] |  |  |  | 30 to 70 | > 50 | 
32 | Fc1cc(OC(F)(F)F)ccc1-c1cn2c(C(F)F)nnc2cn1 [Compound 52] |  |  | 1 to 15 | 30 to 70 |  | 
33 | Fc1ccc(OC(F)(F)F)cc1-c1ccc2nnc(C(F)(F)F)n2n1 [Compound 18] |  |  |  | < 30 | < 50 | 
34 | Fc1cc(-c2ccc3nnc(C(F)(F)F)n3n2)cnc1OCC(F)(F)F [Compound 107] | 13.9 | 1.9 | > 30 | > 70 |  | 
35 | FC1(F)CC(Oc2ccc(-c3ccc4nnc(C(F)(F)F)n4n3)cn2)C1 [Compound 65] | 31 | 0.55 | > 30 | > 70 |  | 
36 | COCc1cc(-c2ccc3nnc(C(F)(F)F)n3n2)ccc1OC(F)(F)F [Compound 117] |  |  | 15 to 30 | > 70 |  | 
37 | N#CC1(c2ccc(-c3ccc4nnc(C(F)(F)F)n4n3)cc2)CC1 [Compound 12] | 5.1 | 1.4 | 1 to 15 | > 70 | > 50 | 
38 | FC1(F)CC(c2nnc3ccc(-c4ccc(OC(F)(F)F)cc4)nn23)C1 [Compound 14] | 32.8 | 1.4 |  | > 70 | > 50 | 
39 | COC(F)(F)c1nnc2ccc(-c3ccc(OC(F)(F)F)cc3)nn12 [Compound 41] |  |  | < 1 | > 70 |  | 
40 | FC(F)(F)COc1ccc(-c2ccc3nnc(CC(F)(F)F)n3n2)cn1 [Compound 7] |  |  |  | 30 to 70 | < 50 | 
41 | CC(C)Oc1ccc(-c2cn3c(C(F)(F)F)nnc3cn2)cc1 [Compound 77] |  |  | 1 to 15 | > 70 |  | 
42 | COc1cc(OC(F)(F)F)ccc1-c1ccc2nnc(C3CC(F)(F)C3)n2n1 [Compound 13] |  |  |  | > 70 | > 50 | 
43 | COc1cc(C2(C#N)CC2)ccc1-c1ccc2nnc(C(F)(F)F)n2n1 [Compound 22] | 16.6 | 0.6 |  | > 70 | > 50 | 
44 | FC(F)(F)c1nnc2ccc(-c3ccc([C@@H]4CC4(F)F)cc3)nn12 (single isomer, unassigned) [Compound 122] |  |  | < 1 |  |  | > 70
45 | Cc1cc(C2(C#N)CC2)ccc1-c1ccc2nnc(C(F)(F)F)n2n1 [Compound 105] |  |  | 15 to 30 |  |  | 30 to 70
46 | COCc1cc(C(F)(F)F)ccc1-c1cn2c(C(F)(F)F)nnc2cn1 [Compound 113] |  |  | 1 to 15 | > 70 |  | 
47 | Fc1cc(-c2ccc3nnc(C(F)(F)F)n3n2)ccc1OC(F)(F)F [Compound 31] | 2 | 15.4 |  | > 70 | > 50 | 
